Experimental data: patent publication US9004743B2, “Mixing device for creating an output mixture by mixing a first material and a second material” (Revalesio Corporation, priority 2006, dated 2015)
Read-outs that look alike come from different tables or passages of the source.

Legend:
[1] = tested on: glutathione peroxidase; assay: Glutathione peroxidase study; assay type: biochemical; settings: A340 nm, 25 degrees Celsius
Experimental: The inventive oxygen-enriched output fluid material was tested for the presence of hydrogen peroxide by testing the reactivity with glutathione peroxidase using a standard assay (Sigma). Briefly, glutathione peroxidase enzyme cocktail was constituted in deionized water and the appropriate buffers. Water samples were tested by adding the enzymatic reagents. Continuous spectrophotometric rate determination was made at A340 nm, and room temperature (25 degrees Celsius).

[2] = tested on: Tilapia; settings: cited from earlier work

SMILES: OO [hydrogen peroxide]
- reactivity with glutathione peroxidase [1]: strong reactivity

SMILES: O=O [dissolved oxygen, oxygen]
- final increase in weight of the fish ([2]; high dissolved oxygen levels (approximately 7.0 ppm)): 19 grams
- final increase in weight of the fish ([2]; low DO levels (less than 2 ppm)): 1.5 g
- reduction in growth rates ([2]; low DO versus high DO): 92%
- final increase in weight of the fish ([2]; mid-level DO (approximately 3.5 ppm)): 5 grams
- reduction in growth rates ([2]; mid-level DO versus high DO): 74%
